Results on 2 compounds are retold here after patent US12274761B2, “Compositions and methods to detect GLUA1 in brain and to identify the presence of GLUA1-mediated PTSD” (Neurovation Labs, Inc., priority 2016, dated 2025).

“Also recorded” adds a separate entry of the source.

Experiment [1] concerns GluA1 protein in the basolateral amygdala (BLA). Kind of experiment: Western blot of GluA1 protein in the BLA after SEFL trauma. It is filed as in vivo. The settings on record: metyrapone given before the trauma, measured three weeks after the trauma, stressed rats. How it is done:
FIG. 1A illustrates an experimental design for Stress-Enhanced Fear Learning (SEFL), a rodent model of PTSD.
(§1) FIGS. 1B-D depict representative Western blot images and graphs of relative optical density ratios (±standard error of the mean (SEM)) of GluA1, GluA2, and GluN1, respectively, and a glyceraldehyde 3-phosphate dehydrogenase (GAPDH) control. […] Glutamate receptor protein changes were measured three weeks after the initial trauma via Western blotting. While the GluA2 subunit of the AMPAR and the GluN1 subunit of the N-methyl-D-aspartate receptor (NMDAR) remained unchanged after trauma, GluA1 increased substantially.
(§2) FIG. 1A illustrates an experimental design using SEFL (7, 8). Protein levels were measured using Western blot, an analytical technique to detect specific proteins in tissue samples.
FIG. 1B depicts representative Western blot images of GluA1 and a control, GAPDH, from the BLA of stressed and unstressed rats, measured three weeks after the trauma.
Because GluA1 increases are observed weeks after the trauma, post-trauma GluA1 ASO infusions directly into the BLA prevented sensitized fear responses usually observed in SEFL (FIGS. 2A-E) (5). […] FIG. 2C depicts representative Western blot images of GluA1 and GAPDH from the BLA of stressed/MSO and stressed/ASO rats. […]

For experiment [2], the system named is GluA2 subunit of the AMPAR. Kind of experiment: Western blot of GluA2 protein in the BLA after SEFL trauma. The experiment is classed as in vivo. The conditions noted are these: measured three weeks after the trauma; stressed and unstressed rats. On the procedure:
as §1, §2
FIG. 1C depicts representative Western blot images of GluA2 and GAPDH from the BLA of stressed and unstressed rats, measured three weeks after the trauma.
For orientation: Immunoblotting shows a protein as a band on a membrane.

The test system of experiment [3] is GluN1 subunit of the N-methyl-D-aspartate receptor (NMDAR). The experiment is described as follows: Western blot of GluN1 protein in the BLA after SEFL trauma. The conditions noted are these: measured three weeks after the trauma; stressed and unstressed rats. The experiment is classed as in vivo. How it is done: as §1, §2
FIG. 1D depicts representative Western blot images of GluN1 and GAPDH from the BLA of stressed and unstressed rats, measured three weeks after the trauma.

Experiment [4] relates to Stress-Enhanced Fear Learning (SEFL). Kind of experiment: Stress-Enhanced Fear Learning (SEFL), a rodent model of PTSD: freezing in Context B. The experiment is classed as in vivo, rats. An excerpt:
FIG. 1A illustrates an experimental design for Stress-Enhanced Fear Learning (SEFL), a rodent model of PTSD. FIG. 2A illustrates an abbreviated SEFL experimental design. […] FIG. 3A illustrates a SEFL experimental design. […] FIG. 2C depicts representative Western blot images of GluA1 and GAPDH from the BLA of stressed/MSO and stressed/ASO rats. FIG. 2D depicts mean GluA1: GAPDH optical density ratios (±SEM) from the BLA of stressed/MSO and stressed/ASO rats. […] FIG. 2E depicts mean (±SEM) percent freezing in Context B on Day 3. […] FIG. 3C depicts mean freezing (±SEM) in Context B on Day 3.

Take `CC(C)(C(=O)c1cccnc1)c1cccnc1` [Metyrapone]: the “GluA1: GAPDH optical density ratios in the BLA” value in experiment [1] is “prevented GluA1 increases and conferred levels to that of unstressed controls”; in experiment [1] (listed as metyrapone) it was “GluA1 protein levels in the BLA were significantly higher in stressed rats than in unstressed rats and metyrapone-treated rats”. Moreover, the “GluA2: GAPDH optical density ratios in the BLA (GluA2 levels)” value in experiment [2] is given as “Neither stress nor metyrapone had an effect on GluA2 levels”. Also, the “GluN1: GAPDH optical density ratios in the BLA (GluN1 levels)” value in experiment [3] is “Neither stress nor metyrapone had an effect on GluN1 levels”. The “SEFL (stress-enhanced fear learning)” value in experiment [4] (given before the trauma) is reported as “effectively preventing SEFL”.
Turning to `Br.C[N+](C)(C)CCCCCNCC12CC3CC(CC(C3)C1)C2.[Br-]` [IEM-1460, N,N,H,-Trimethyl-5-[(tricyclo[3.3.1.13,7]dec-1-ylmethyl)amino]-1-pentanaminiumbromide hydrobromide], in experiment [4] (intra-BLA infusion after the 15-shock stressor (post-trauma), compared with stressed controls, hydrobromide), the “percent freezing in Context B on Day 3 (sensitized fear, SEFL)” value is “significantly reduces freezing in Context B; also recorded: attenuate SEFL”.
